From paper PMC12136037, “Type II kinase inhibitors that target Parkinson’s disease–associated LRRK2” (Science Advances, 2025) come the findings set out here.

Common to all, as to assay: DSF 100 kinase selectivity screen;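 note: compound tested at 20 µM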
Holding throughout (format): binding

Assay [1] concerns the target T1, ~100 representative kinases (Homo sapiens, UniProt P33981).
T1 construct: Recombinant protein kinase domains with a concentration of 2 μM
T1 sequence (P33981 1-857): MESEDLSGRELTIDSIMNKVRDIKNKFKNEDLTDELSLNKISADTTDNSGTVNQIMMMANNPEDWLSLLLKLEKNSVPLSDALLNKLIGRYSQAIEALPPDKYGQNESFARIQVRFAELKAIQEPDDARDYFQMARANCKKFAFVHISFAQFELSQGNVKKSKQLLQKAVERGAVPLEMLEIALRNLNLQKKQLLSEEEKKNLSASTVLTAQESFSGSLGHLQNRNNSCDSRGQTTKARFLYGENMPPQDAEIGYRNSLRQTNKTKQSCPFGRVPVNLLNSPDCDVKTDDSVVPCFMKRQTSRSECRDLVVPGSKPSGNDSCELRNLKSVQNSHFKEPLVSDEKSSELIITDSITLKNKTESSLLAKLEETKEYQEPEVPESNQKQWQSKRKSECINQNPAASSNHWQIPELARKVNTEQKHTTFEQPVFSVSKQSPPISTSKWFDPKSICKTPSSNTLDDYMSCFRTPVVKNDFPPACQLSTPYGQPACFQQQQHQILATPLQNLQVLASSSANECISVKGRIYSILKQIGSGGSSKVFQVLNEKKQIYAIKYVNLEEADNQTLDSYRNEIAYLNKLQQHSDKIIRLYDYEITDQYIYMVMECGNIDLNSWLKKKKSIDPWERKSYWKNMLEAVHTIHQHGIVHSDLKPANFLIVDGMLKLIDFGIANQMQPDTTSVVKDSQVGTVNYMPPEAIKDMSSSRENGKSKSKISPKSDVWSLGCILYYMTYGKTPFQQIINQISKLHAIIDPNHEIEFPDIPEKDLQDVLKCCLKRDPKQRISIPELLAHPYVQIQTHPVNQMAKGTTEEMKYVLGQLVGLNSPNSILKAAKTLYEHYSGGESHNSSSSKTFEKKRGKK
As to conditions: Protein TTK; DSF; average of three replicates. In short, it runs like this: (§1)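 Each kinase domain, at 2 μM, is mixed with 20 μM test compound and SYPRO Orange in Hepes (20 mM, pH 7.5) with 500 mM NaCl. Temperature is then raised at 3°C/min and fluorescence-monitored unfolding yields the melting temperature change, ΔTm in degrees Celsius.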

Assay [2] deals with T2, ~100 representative kinases (Homo sapiens, UniProt Q8TD08).
T2 construct: Recombinant protein kinase domains with a concentration of 2 μM
T2 sequence (Q8TD08 1-544): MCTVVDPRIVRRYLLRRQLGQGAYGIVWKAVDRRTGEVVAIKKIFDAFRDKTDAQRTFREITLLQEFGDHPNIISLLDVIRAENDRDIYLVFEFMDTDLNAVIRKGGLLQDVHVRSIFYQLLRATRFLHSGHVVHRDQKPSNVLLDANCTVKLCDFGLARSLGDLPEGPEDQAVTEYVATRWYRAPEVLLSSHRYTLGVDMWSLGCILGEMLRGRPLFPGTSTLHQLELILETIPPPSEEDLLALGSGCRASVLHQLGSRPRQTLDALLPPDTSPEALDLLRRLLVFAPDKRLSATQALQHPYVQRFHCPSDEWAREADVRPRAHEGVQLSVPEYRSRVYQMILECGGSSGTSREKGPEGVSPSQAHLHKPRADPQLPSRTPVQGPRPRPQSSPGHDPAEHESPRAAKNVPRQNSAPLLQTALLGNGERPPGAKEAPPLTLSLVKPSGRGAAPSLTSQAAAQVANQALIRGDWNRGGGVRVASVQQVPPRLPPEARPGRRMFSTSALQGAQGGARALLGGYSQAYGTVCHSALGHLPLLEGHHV
The settings on record: protein MAPK15; average of three replicates. The method, boiled down: as §1

Assay [3] concerns the target T3, ~100 representative kinases (Homo sapiens, UniProt P55201).
T3 construct: Recombinant protein kinase domains with a concentration of 2 μM
T3 sequence (P55201 1-1214): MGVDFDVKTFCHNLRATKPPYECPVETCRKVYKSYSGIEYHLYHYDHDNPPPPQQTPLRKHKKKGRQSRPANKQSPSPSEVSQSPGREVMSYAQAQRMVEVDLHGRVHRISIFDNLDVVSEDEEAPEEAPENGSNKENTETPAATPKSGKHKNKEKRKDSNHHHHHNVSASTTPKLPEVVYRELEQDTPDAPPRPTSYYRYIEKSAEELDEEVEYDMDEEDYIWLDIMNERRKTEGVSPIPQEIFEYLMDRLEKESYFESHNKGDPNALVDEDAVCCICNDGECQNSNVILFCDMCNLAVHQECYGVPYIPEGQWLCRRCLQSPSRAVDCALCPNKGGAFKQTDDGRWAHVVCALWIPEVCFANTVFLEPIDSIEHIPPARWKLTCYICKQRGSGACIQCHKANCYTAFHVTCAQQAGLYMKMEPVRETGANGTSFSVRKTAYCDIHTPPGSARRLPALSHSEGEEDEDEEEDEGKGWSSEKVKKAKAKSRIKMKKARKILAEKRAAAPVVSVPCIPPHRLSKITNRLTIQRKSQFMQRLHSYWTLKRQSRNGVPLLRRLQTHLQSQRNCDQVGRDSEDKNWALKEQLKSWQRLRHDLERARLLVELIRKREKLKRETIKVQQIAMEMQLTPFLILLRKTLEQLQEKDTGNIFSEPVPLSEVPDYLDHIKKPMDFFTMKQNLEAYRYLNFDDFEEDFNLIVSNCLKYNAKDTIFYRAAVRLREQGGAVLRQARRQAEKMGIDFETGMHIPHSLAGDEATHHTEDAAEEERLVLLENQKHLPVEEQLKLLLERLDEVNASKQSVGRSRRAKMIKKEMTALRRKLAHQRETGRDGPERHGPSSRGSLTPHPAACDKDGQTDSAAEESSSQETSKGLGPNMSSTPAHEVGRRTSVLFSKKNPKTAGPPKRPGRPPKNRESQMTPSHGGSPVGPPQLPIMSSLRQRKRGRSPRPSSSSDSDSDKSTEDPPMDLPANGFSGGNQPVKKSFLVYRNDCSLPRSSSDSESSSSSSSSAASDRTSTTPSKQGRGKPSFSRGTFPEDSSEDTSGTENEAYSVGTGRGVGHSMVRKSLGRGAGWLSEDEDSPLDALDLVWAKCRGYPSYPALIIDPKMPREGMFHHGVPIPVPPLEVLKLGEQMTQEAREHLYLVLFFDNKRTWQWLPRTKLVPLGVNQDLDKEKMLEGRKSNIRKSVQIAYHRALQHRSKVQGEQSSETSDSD
As to conditions: Protein BRPF1; average of three replicates. The method, boiled down:
as §1

For assay [4], the target named is T4, ~100 representative kinases (Homo sapiens, UniProt Q96NX5).
T4 construct: Recombinant protein kinase domains with a concentration of 2 μM
T4 sequence (Q96NX5 whole entry, the tested form may be a part): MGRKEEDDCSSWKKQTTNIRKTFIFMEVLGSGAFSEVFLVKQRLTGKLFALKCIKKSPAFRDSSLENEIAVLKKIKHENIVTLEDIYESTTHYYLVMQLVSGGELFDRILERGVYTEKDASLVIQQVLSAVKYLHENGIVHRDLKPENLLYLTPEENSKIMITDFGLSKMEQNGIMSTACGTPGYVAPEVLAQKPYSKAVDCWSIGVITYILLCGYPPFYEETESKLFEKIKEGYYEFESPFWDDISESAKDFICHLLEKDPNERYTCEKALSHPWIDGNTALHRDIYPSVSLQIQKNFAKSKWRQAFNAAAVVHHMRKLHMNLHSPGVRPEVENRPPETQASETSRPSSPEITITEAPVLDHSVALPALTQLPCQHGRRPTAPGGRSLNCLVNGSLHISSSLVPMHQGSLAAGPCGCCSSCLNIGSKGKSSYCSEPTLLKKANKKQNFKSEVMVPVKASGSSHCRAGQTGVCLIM
The settings on record: Protein CAMK1G; average of three replicates. In short, it runs like this:
as §1

The target in assay [5] is T5, ~100 representative kinases (Homo sapiens, UniProt Q13557).
T5 construct: Recombinant protein kinase domains with a concentration of 2 μM
T5 sequence (Q13557 whole entry, the tested form may be a part): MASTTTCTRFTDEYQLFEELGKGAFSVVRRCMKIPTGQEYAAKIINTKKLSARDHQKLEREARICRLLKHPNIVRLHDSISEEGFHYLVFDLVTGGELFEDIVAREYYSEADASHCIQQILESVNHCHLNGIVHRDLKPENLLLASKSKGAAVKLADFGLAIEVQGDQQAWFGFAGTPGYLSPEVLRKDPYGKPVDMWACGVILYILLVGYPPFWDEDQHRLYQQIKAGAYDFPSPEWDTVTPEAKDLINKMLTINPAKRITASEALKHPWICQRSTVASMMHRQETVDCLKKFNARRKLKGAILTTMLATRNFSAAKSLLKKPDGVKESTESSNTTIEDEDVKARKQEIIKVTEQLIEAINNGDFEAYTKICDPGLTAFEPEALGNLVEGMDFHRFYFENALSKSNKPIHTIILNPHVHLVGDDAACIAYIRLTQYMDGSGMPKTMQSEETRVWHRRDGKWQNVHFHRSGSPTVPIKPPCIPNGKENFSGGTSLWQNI
The settings on record: Protein CAMK2D; average of three replicates. The method, boiled down:
as §1

Take `COc1cc2c(Oc3ccc(NC(=O)C4(C(=O)Nc5ccc(F)cc5)CC4)cc3F)ccnc2cc1OCCCN1CCOCC1` [Foretinib, reference compound]: the dTm in assay [1] was found to be 2.21 K; in assay [2], 8.58 K; in assay [3], 0.26 K; in assay [4], 3.09 K; in assay [5], 0.34 K.
For `Cc1ccc(-n2nc(C(C)(C)C)cc2NC(=O)Nc2cccc(-c3c[nH]c4nc(Cl)nc(N5CCOCC5)c34)c2)cc1` [Compound 30], the dTm in assay [1] was 2.15 K; in assay [2], 6.72 K; in assay [3] it was -1.99 K; in assay [4], -0.26 K; in assay [5], -0.81 K.
On the same counts, the results for `CC(C)(C)c1cccc(NC(=O)C2(C(=O)Nc3cccc(-c4c[nH]c5ncnc(N6CCOCC6)c45)c3)CC2)c1` [Compound 22] are 5.44 K, 6.32 K, 1.91 K, 4.22 K and 0.84 K.
Regarding `COc1ccc(NC(=O)C2(C(=O)Nc3cccc(-c4c[nH]c5ncnc(N6CCOCC6)c45)c3)CC2)cc1` [Compound 16], the dTm is recorded as 3.48 K in assay [1]; 2.17 K in assay [2]; -0.96 K in assay [3]; -0.76 K in assay [4]; -0.55 K in assay [5].
On the same counts, the results for `CC(=O)N1CCN(c2nc(Cl)nc3[nH]cc(-c4cccc(NC(=O)Nc5cc(C(C)(C)C)nn5-c5ccc(C)cc5)c4)c23)CC1` [Compound 31] are 1.71 K, 8.84 K, -0.70 K, 0.05 K and -0.29 K.
For `Cc1cc(NC(=O)C2(C(=O)Nc3ccc(F)cc3)CC2)cc(-c2c[nH]c3ncnc(N4CCOCC4)c23)c1` [Compound 6] the same measures were 5.72 K, 5.91 K, 0.87 K, 3.07 K and 0.64 K.
For `O=C(Nc1cccc(-c2c[nH]c3ncnc(N4CCOCC4)c23)c1)C1(C(=O)Nc2ccc(F)c(Br)c2F)CC1` [Compound 26] the same measures were 6.98 K, 5.05 K, 1.97 K, 4.69 K and 1.25 K.
`O=C(Nc1cccc(-c2c[nH]c3ncnc(N4CCOCC4)c23)c1)C1(C(=O)Nc2cccc3c2CCC3)CC1` [Compound 11]: the dTm in assay [1] is given as 6.04 K; in assay [2] it was 5.24 K; in assay [3], 1.49 K; in assay [4] it was 2.69 K; in assay [5] it was 0.60 K.
On the same counts, the results for `Cn1cc(-c2c[nH]c3ncnc(N4CCOCC4)c23)cc1C#N` [PFE-360] are 0.43 K, 3.82 K, -1.30 K, -0.81 K and 0.51 K.
For `C[C@@H]1CN(c2cc(-c3n[nH]c4ccc(OC5(C)CC5)cc34)ncn2)C[C@H](C)O1` [MLi2] the same measures were 5.63 K, -0.33 K, -1.36 K, 3.50 K and 1.10 K.
On the same counts, the results for `O=C(Nc1ccc(F)cc1)C1(C(=O)Nc2cccc(-c3c[nH]c4ncnc(N5CCOCC5)c34)c2)CC1` [Compound 2] are 6.94 K, 10.01 K, 0.13 K, 1.77 K and 0.07 K.
With `CCSc1nc(NC)c2c(-c3cccc(NC(=O)Nc4cc(C(C)(C)C)nn4-c4ccc(C)cc4)c3)c[nH]c2n1` [Compound 32], the dTm in assay [1] is 6.59 K; in assay [2], 3.18 K; in assay [3], -0.60 K; in assay [4] it was 0.27 K; in assay [5], 0.32 K.
